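Following 48 hours of exposure in 96-well plates, responses at five concentrations were used to interpolate endpoints linearly. Abbreviation: GI50, concentration required for 50% inhibition of growth. TGI: concentration producing complete growth inhibition.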
Legend:
Assay in all cases: inhibition of tumour cell growth, NCI panel, 48 h
KM20L2 colon = test system: KM20L2 colon
DMS 273 small cell lung = test system: DMS 273 small cell lung
M19-MEL melanoma = test system: M19-MEL melanoma
SNB-78 CNS = test system: SNB-78 CNS
DMS 114 small cell lung = test system: DMS 114 small cell lung
MCF7 breast = test system: MCF7 breast
XF 498 CNS = test system: XF 498 CNS
HS 578T breast = test system: HS 578T breast
MDA-MB-231 breast = test system: MDA-MB-231 breast
786-0 renal = test system: 786-0 renal
BT-549 breast = test system: BT-549 breast
MDA-N = test system: MDA-N
SR leukemia = test system: SR leukemia

Row | SMILES | GI50 (KM20L2 colon) | TGI (KM20L2 colon) | TGI (DMS 273 small cell lung) | TGI (M19-MEL melanoma) | GI50 (SNB-78 CNS) | TGI (SNB-78 CNS) | TGI (DMS 114 small cell lung) | TGI (MCF7 breast) | TGI (XF 498 CNS) | TGI (HS 578T breast) | TGI (MDA-MB-231 breast) | TGI (786-0 renal) | TGI (BT-549 breast) | TGI (MDA-N) | GI50 (MDA-MB-231 breast) | GI50 (MCF7 breast) | TGI (SR leukemia) | GI50 (HS 578T breast) | GI50 (BT-549 breast) | GI50 (SR leukemia)
1 | O=C(O)/C=C/c1cnc[nH]1 | > 500 µM | > 500 µM | > 500 µM | > 500 µM | > 500 µM | > 500 µM | > 500 µM | > 500 µM | > 500 µM |  |  |  |  |  |  |  |  |  |  | 
2 | O=C(O)c1cncc(C(=O)O)c1 |  |  |  |  |  |  |  | > 100 µM |  | > 100 µM | > 100 µM | > 100 µM | > 100 µM | > 100 µM |  |  |  |  |  | 
3 | CC(=O)[O-].[Ni].c1ccc(/C(=N\Nc2ccccn2)c2ccccn2)cc1 |  | 22.1 µM | 25.5 µM | 39.3 µM |  | > 100 µM | 3.36 µM | 30.7 µM |  | > 100 µM | 22.8 µM | 22.1 µM | 45.1 µM | 21.1 µM | 6.01 µM | 6.58 µM |  |  |  | 
4 | COc1ccc2c[n+](C)c3c4cc(OC)c(OC)cc4ccc3c2c1 |  | 29.7 µM | 12.5 µM | 25.6 µM |  | 33.5 µM | 4.16 µM | > 100 µM | 22.1 µM | 16.1 µM | 18.3 µM | 15.5 µM | 10.8 µM |  |  |  | 14.4 µM |  |  | 
5 | NC(CCCNc1cccc(O)c1)C(=O)O (stereo unspecified) |  | > 100 µM | > 100 µM | > 100 µM |  | > 100 µM | > 100 µM |  |  |  |  | > 100 µM |  |  |  |  | > 100 µM |  |  | 
6 | CCSc1nc(N2CCCCC2)c2cn[nH]c2n1 |  |  |  |  |  |  |  | 71.7 µM |  | > 100 µM | > 100 µM |  | 77.5 µM |  | 11.6 µM | 22.8 µM |  | 32.7 µM | 20.1 µM | 
7 | Cn1c(=O)c2c(ncn2CCSS(=O)(=O)O)n(C)c1=O |  |  |  |  |  |  |  | > 100 µM |  | > 100 µM | > 100 µM | > 100 µM | > 100 µM | > 100 µM |  |  |  |  |  | 
8 | COc1cccc(C2C(C(=O)O)=C(CO)Oc3cc4c(cc32)OCO4)c1 (stereo unspecified) |  | > 100 µM |  | > 100 µM |  | > 100 µM | > 100 µM |  | 91.2 µM |  |  |  |  |  |  |  |  |  |  | 
9 | CC(=O)[O-].CC(=O)[O-].O=C(N/N=C/c1cc(Cl)cc(Cl)c1[OH2+])c1ccncc1.[Zn+2] |  | > 100 µM |  |  |  |  |  |  |  |  |  | > 100 µM |  |  |  |  | > 100 µM |  |  | 
10 | COc1ccc2c(c1)O[C@H]1c3ccc(O)cc3OC[C@@H]21 |  | > 100 µM | > 100 µM | 46 µM |  | > 100 µM |  |  | 46.4 µM |  |  |  |  |  |  |  | 43.7 µM |  |  | 
11 | CC(=O)NC(CCCCNC(=O)OC(C)(C)C)C(=O)O (stereo unspecified) |  |  |  |  |  |  |  | > 100 µM |  |  | > 100 µM |  |  | > 100 µM |  |  |  |  |  | 
12 | C=C(CN(C)C)C(=O)c1cc(C)ccc1C |  | 61.2 µM | 39.3 µM | 19.6 µM |  | 81.5 µM | 21.4 µM | 11.5 µM | 33 µM | > 91.3 µM | 36.2 µM | 11.4 µM | 32.5 µM | 21.4 µM |  |  | 6.63 µM |  |  | 
13 | O=C(N1CCC(CN=c2cc3n(-c4ccc(Cl)cc4)c4ccccc4nc-3cc2Nc2ccc(Cl)cc2)CC1)N1CC1 |  |  |  |  |  |  |  |  |  | 3.54 µM |  |  |  |  |  |  | 2.25 µM | 1.48 µM |  | 337 nM
14 | O=c1[nH]cc(N(CCCl)CCCl)c(=O)[nH]1 |  | 196 µM | 74.4 µM | 175 µM |  | 369 µM | 103 µM | 205 µM | 89.7 µM | 301 µM | 211 µM | 64.8 µM | 158 µM | 153 µM |  |  | 55.1 µM |  |  | 
15 | O=NNc1cnccn1 |  | > 1250 µM | > 1250 µM | > 1250 µM |  | > 1250 µM | > 1250 µM | 1240 µM |  | > 1250 µM | > 1250 µM | > 1250 µM | > 1250 µM | > 1250 µM |  |  | > 1110 µM |  |  | 
16 | c1ccc(SC(Sc2ccccc2)c2ccc3c(c2)OCO3)cc1 |  |  |  |  |  |  |  |  |  | > 100 µM | > 100 µM | > 100 µM | > 100 µM | > 100 µM |  |  | > 100 µM |  |  | 
17 | CCOC(=O)C1(C(=O)OCC)CSC1 |  |  |  |  |  |  |  | > 100 µM |  | > 100 µM | > 100 µM |  |  | > 100 µM |  |  | > 100 µM |  |  | 
